Measured values reported in patent EP2846814B1, “COMPOSITION FOR THE PREVENTION AND TREATMENT OF VIRAL INFECTIONS CAUSED BY RETROVIRUSES” (Pandalis, Georgios, priority 2012, dated 2013).

Test system: HIV-1 Lai (subtype B, X4)
Assay: In vitro testing of antiviral activity in the HeLa-P4 assay (β-Galactosidase reporter, luminescence)
Assay type: cell-based
Description: • Viruses: HIV-1 Lai (subtype B, X4); titer: 8 x 10^4/ml; 20 µl/batch • Cells: HeLa-P4; 2.5 x 10^4/batch
HeLa-P4 cells (from NIH AIDS Research and Reference Program) are a cell line, which was transfected with genes for the human CD4- and […] receptor and which are therefore infectable with HIV-1 (the CXCR4-receptor is expressed on the cells). For quantification of the HIV infection, the cells carry a reporter gene, i.e. β-Galactosidase gen, which is under control of the HIV-1 promoter. After infection, the Tat-protein of HIV-1 transactivates the reporter gene and the degree of infection can be quantified by measurement of the enzyme activity in the lysate of the cells. An inhibition of HIV-1 infection results in a reduction of the β-Galactosidase activity with respect to the infection with viruses without substance addition. The background is defined by measuring the enzyme activity in cells, to which no virus was added. Since in principle a lower infection may also be based on toxic effects of the substances to the cells, in addition to said assay a cytotoxicity assay is also carried out.
The test substances are prepared by adding 1 mg of each extract/concentrate in an Eppendorf vial and dissolving the sample in 1 ml of RPMI medium. The solution is filtered under sterile conditions and placed in a new Eppendorf vial. As a positive control, the T20-peptide (a known HIV-1 entry inhibitor; Enfuvirtide) is used. Dilution series of the test compounds alone, combinations thereof as well as of T20 in cell culture medium were prepared, wherein the samples have concentrations of 5, 10, 25, and 50 µg/ml for Marrubium vulgare, Cistus incanus and Ribes nigrum and combinations of extracts of Marrubium vulgare and Cistus incanus, and Marrubium vulgare and Ribes nigrum. For Marrubium vulgare, Borago officinalis and combinations of extracts of Marrubium vulgare and Borago officinalis concentrations of 5 and 50 µg/ml were tested. The given concentrations in the combinations relate to the concentration of each single extract, e.g. a concentration of 5 µg/ml means 5 µg/ml of Marrubium vulgare and 5 µg/ml of the extract of the other plant (Cistus incanus, Ribes nigrum, Borago officinalis).
The positive control T20 is used in concentrations of 100 and 200 nM. Each of the substance concentrations was tested in triplicates.
Day 1: Each of the substance dilutions of Marrubium vulgare (5, 10, 25, 50, […]), Ribes nigrum (5, 10, 25, and 50 µg/ml), Cistus incanus (5, 10, 25, and 50 µg/ml) and Borago officinalis (5 and 50 µg/m) is mixed with 20 µl of the HIV-1 Lai virus stock (titer 8x10^4/ml), vortexed, and pre-incubated at 37 °C for 30 minutes. The virus/substance mixture is added to 2.5 x 10^4 HeLa-P4 cells corresponding to an m.o.i. of 0.06, vortexed and incubated for 2 h at 37 °C. Afterwards the supernatant is removed, the cells are washed with medium and 100 µl of fresh medium is added. The cells are incubated for 2 days at 37 °C.
Accordingly, each of the substance dilutions of combinations of Marrubium vulgare and Ribes nigrum (5, 10, 25, and 50 µg/ml), Marrubium vulgare and Cistus incanus (5, 10, 25, and 50 µg/ml) and Marrubium vulgare and Borago officinalis (5 and 50 µg/ml) is mixed with 20 µl of the HIV-1 Lai virus stock (titer 8x10^4/ml), vortexed, and pre-incubated at 37 °C for 30 minutes. The virus/substance mixture is added to 2.5 x 10^4 HeLa-P4 cells, vortexed and incubated for 2 h at 37 °C. Afterwards the supernatant is removed, the cells are washed with medium and 100 µl of fresh medium is added. The cells are incubated for 2 days at 37 °C.
Day 3: The supernatant is removed, the cells are washed with 100 µl of medium and lysed in 50 µl of lysis buffer per each well (2.5 ml glycerol; 1.25 ml MES-Tris, 25 µl 1 M DTT, 250 µl Triton X100, H2O ad 25 ml) for 10 minutes on ice and removed at -80 °C. […]

In the case of Enfuvirtide [T20], the “LU (luminescence units) Average” value (100 nM) was 16893 LU, the “LU (luminescence units) Trial 1” value (100 nM) was 23855 LU and the “LU (luminescence units) Trial 2” value (100 nM) was 13888 LU. The “LU (luminescence units) Trial 3” value (100 nM) was 12937 LU, the “LU (luminescence units) Average” value (200 nM) was 8802 LU and the “LU (luminescence units) Trial 1” value (200 nM) was 9407 LU. The “LU (luminescence units) Trial 2” value (200 nM) was 7531 LU and the “LU (luminescence units) Trial 3” value (200 nM) was 9468 LU.
